Tests used:
HepG2 cells = assay: MTS cell viability assay, HepG2 cells; type: cell-based, Human; conditions: 48 hours
Experimental: (§1) Human hepatocellular cancer cell lines, HepG2 (HB-8065, ATCC), Hep3B (HB-8064, ATCC) and HUVEC (CRL-1730) cells are cultured in a growth medium (2 mM L-glutamine, 100 U/ml penicillin, 100 µg/ml streptomycin) of Dulbecco's modified Eagle's medium (DMEM) containing 10% heat inactivated FBS in a humidified atmosphere at 37° C. with 5% CO2. Cells are passaged at 3-day intervals.
(§2) (NaB: B5H10NaO13), Curcumin (Sigma, C1386), and Piperine (Sigma, P49007). At the end of 24, 48 and 72 hours, cell viability were measured. Cell viability assay was performed by 3-(4,5-di-methyl-thiazol-2-yl)-5-(3-carboxy-methoxy-phenyl)-2-(4-sulfo-phenyl)-2H-tetrazolium (MTS) method (CellTiter96 AqueousOne Solution; Promega, Southampton, UK) following the manufacturer's protocol. After 2 hours of incubation time, the cell viability assay is conducted by measuring at 490 nm using an ELISA microplate reader (Bio-tek ELx800, USA). IC50 value for 48 hours was calculated.
(§3) The combination index (CI) is used to determine the degree of drug interaction. The concentration of inhibition in the combination is the sum of the ratio of the dose of each drug to the dose of each drug used alone. […] The formalization is as follows:
(§4) [formula] • (Dx)1, (Dx)2: Individual IC50 values of the substances • (D)1, (D)2: Concentrations of substances in the combination

Hep3B cells [1] = assay: MTS cell viability assay, Hep3B cells; type: cell-based, Human; conditions: 48 hours
Experimental: as §1, §2, §3, §4

Hep3B cells [2] = conditions: literature study [20]; cited from earlier work

| IC50 (HepG2 cells; Homo sapiens) [µM] | IC50 (Hep3B cells [1]; Homo sapiens) [µM] | IC50 (HepG2 cells) [µM] | IC50 (Hep3B cells [1]) [µM] | Compound | proliferation of Hep3B cells (Hep3B cells [2]) |
| --- | --- | --- | --- | --- | --- |
| 44.8 | 41.4 | – | – | COc1cc(/C=C/C(=O)CC(=O)/C=C/c2ccc(O)c(OC)c2)ccc1O [curcumin] | – |
| > 150 | > 150 | – | – | O=C(/C=C/C=C/c1ccc2c(c1)OCO2)N1CCCCC1 [piperine] | – |
| – | – | 7660 | 6560 | sodium pentaborate pentahydrate | decreased the proliferation of Hep3B cells |

Reference: patent publication US20250228890A1, “ANTI-CANCER FORMULATION COMPRISING SODIUM PENTABORATE, CURCUMIN AND PIPERINE FOR USE IN THE TREATMENT OF HEPATOCELLULAR CARCINOMA” (Yeditepe Universitesi, priority 2022, published 2025)
